Source: paper PMC10537105, “Derivatives Incorporating Acridine, Pyrrole, and Thiazolidine Rings as Promising Antitumor Agents” (Molecules, 2023)

Experiments:
HCT-116 = assay: MTT assay, HCT-116 cells; format: cell-based, human; settings: for IC50: Homo sapiens, HCT-116, MTT, 72 h of incubation, read-out: IC50 values ± SD, HCT-116
MCF-7 = assay: MTT assay, MCF-7 cells; format: cell-based, human; settings: Homo sapiens, MCF7, 72 h of incubation, read-out: IC50 values ± SD, MCF-7
MDA-MB-231 = assay: MTT assay, MDA-MB-231 cells; format: cell-based, human; settings: Homo sapiens, MDA-MB-231, 72 h of incubation, read-out: IC50 values ± SD, MDA-MB-231
Jurkat = assay: MTT assay, Jurkat cells; format: cell-based, human; settings: for IC50: Homo sapiens, Jurkat, MTT, 72 h of incubation, read-out: IC50 values ± SD, Jurkat
HeLa = assay: MTT assay, HeLa cells; format: cell-based, human; settings: Homo sapiens, HeLa, 72 h of incubation, read-out: IC50 values ± SD, HeLa
BJ-5ta = assay: MTT assay, BJ-5ta normal fibroblasts; format: cell-based, human; settings: Homo sapiens, Fibroblast, 72 h of incubation, normal cell line, read-out: IC50 values ± SD, BJ-5ta
COS-7 = assay: MTT assay, COS-7 normal cells; format: cell-based, monkey; settings: Primates, COS-7, 72 h of incubation, normal cell line, read-out: IC50 values ± SD, COS-7
[1] = test system: primary brain endothelial cells; assay: Endothelial cell viability assay (ATP, CellTiter-Glo); format: cell-based, rats; settings: primary rat brain endothelial cells
Description: To comprehensively evaluate the cytotoxic effects of the investigated compounds 6c, 6e, and 8a, 8c, we conducted tests on primary endothelial cells. This additional assessment served multiple purposes in our study. Firstly, it aimed to assess the selectivity of these compounds, particularly in comparison to their effects on both tumor and normal cell lines. […] Secondly, by examining their impact on endothelial cells, we aimed to explore potential off-target effects, as endothelial cells are crucial components of blood vessels and play a pivotal role in angiogenesis—a process intricately linked to tumor growth. Lastly, these tests allowed for a broader safety assessment, beyond the scope of tumor and normal cell lines, providing insights into the compounds’ implications for vascular health and their regulatory role in angiogenesis.
Primary brain endothelial cells were isolated from rats (200–250 g, […]; n = 5 per isolation). Euthanasia was performed by CO2 exposure, followed by brain removal. The brainstem and cerebellum were dissected, and the white matter from the midbrain and choroid plexus was excised under sterile conditions. Cortical tissues were meticulously cleaned of meninges and homogenized on ice in a DMEM-F12 medium (PAA Laboratories GmbH, Cölbe, Germany) with 0.1% bovine serum albumin (BSA, Sigma-Aldrich, St. Louis, MO, USA). The homogenate was centrifuged at 800× g for 10 min at 4 °C. After aspirating the supernatant, the pellet was resuspended in a pre-warmed digestion mix containing 1 mg/mL collagenase/dispase (Roche Diagnostics, Indianapolis, IN, USA) and 10 μg/mL DNase I (Roche Diagnostics, Indianapolis, IN, USA). The homogenates were then incubated with the pre-prepared digestion mix at 37 °C for 30 min with gentle shaking. The preparation was centrifuged at 800× g for 10 min at 4 °C, and the pellets were resuspended in 20% BSA in the medium. The tissues were centrifuged at 1500× g for 15 min at 4 °C to obtain a pellet containing microvessels with a fraction of myelin and BSA on top, which was centrifuged again. The microvessels were pooled and resuspended in a pre-warmed digestion mix and incubated for 15 min at 37 °C. The pellet was then centrifuged at 800× g for 10 min at 4 °C and washed with a serum-containing DMEM-F12 culture medium. […] The endothelial cells were ready to use after 7 days.
The endothelial cell viability was assessed through the quantification of adenosine triphosphate (ATP) released from the cells, utilizing the ATP assay as per the manufacturer’s instructions (The Promega CellTiter-Glo™ Luminescent Cell Viability Assay Kit, Madison, WI, USA). […]

SMILES | melting point | IC50 (HCT-116) [µM] | selectivity index, HCT-116 compared to non-tumor cells COS-7 and BJ-5ta (HCT-116; ratio of IC50 values) | IC50 (MCF-7) [µM] | IC50 (MDA-MB-231) [µM] | IC50 (Jurkat) [µM] | selectivity index, Jurkat compared to non-tumor cells COS-7 and BJ-5ta (Jurkat; ratio of IC50 values) | IC50 (HeLa) [µM] | IC50 (BJ-5ta) [µM] | IC50 (COS-7) [µM] | IC50 [1] [µM]
COc1cccc(NC(=S)NN2C(=O)C(C#N)=CC23c2ccccc2Nc2ccccc23)c1 [6c, 3-{4′-Cyano-5′-oxo-1′,5′-dihydro-10H-spiro[acridine-9,2′-pyrrol]-1′-yl}-1-(3-methoxyphenyl)thiourea] | 184 to 186 °C (dec.) | 7 ± 0.22 | exceeding 10 | 34.2 ± 5.01 | 47.2 ± 1.17 | 6.47 ± 0.27 | exceeding 10 | 41.1 ± 1.91 | 73.2 ± 2.41 | 83.4 ± 4.79 | 39
CCOC(=O)/C=C1\S/C(=N\N2C(=O)C(C#N)=CC23c2ccccc2Nc2ccccc23)N(c2ccccc2)C1=O [8a, Ethyl 2-[(2Z,5Z)-2-({4′-cyano-5′-oxo-1′,5′-dihydro-10H-spiro[acridine-9,2′-pyrrol]-1′-yl}imino)-4-oxo-3-phenyl-1,3-thiazolidin-5-ylidene]acetate] | 256 to 259 °C (dec.) | 5.46 ± 0.04 | – | 7.9 ± 0.49 | 7.85 ± 0.69 | 5.67 ± 0.06 | – | 5.77 | 7.25 ± 0.41 | 9.15 ± 0.12 | 5
